The values below are quoted from earlier work in US5882682A (Merck & Co., Inc., priority 1997, dated 1999).

Structures are written as SMILES. Values after ≈ are worked out from the molar mass of the structure shown.

The conditions of series [1]: humans.

Take `CC(=O)Nc1ccc(O)cc1` [acetominophren, acetaminophen]: the “aqueous solubility (in words)” value is “moderately soluble”.
In the case of `COc1ccc2c(c1)c(CC(=O)O)c(C)n2C(=O)c1ccc(Cl)cc1` [indomethacin], the “aqueous solubility (in words)” value is on record as “poorly aqueous soluble”.
Consider `CC[C@H](C)C(=O)O[C@H]1C[C@@H](C)C=C2C=C[C@H](C)[C@H](CC[C@@H]3C[C@@H](O)CC(=O)O3)[C@H]21` [lovastatin], for which the aqueous solubility (in general, how much of the substance goes into solution per volume) (water) was 440 ng/mL (≈ 1.09 µM). In addition, the “reduction of serum cholesterol levels” value in series [1] is recorded as “highly effective”.
As to `CCC(C)(C)C(=O)O[C@H]1C[C@@H](C)C=C2C=C[C@H](C)[C@H](CC[C@@H]3C[C@@H](O)CC(=O)O3)[C@H]21` [simvastatin], in series [1], the “reduction of serum cholesterol levels” value is “highly effective”.
